In patent US20240226072A1 (Stichting Het Nederlands Kanker Instituut, priority 2022, published 2024):
Where two headings read alike, the source gives them in different places.

Assays:
[1] = Plasma pharmacokinetics and tissue distribution 2 h after oral cabazitaxel 10 mg/kg with vehicle or 25 mg/kg ritonavir in wild-type, Oatp1a/1b−/−, Oatp1a/1b/2b1−/−, OATP1B1- and OATP1B3-transgenic mice; type: in vivo; conditions: for Kp at 2 h / Cmax / Tmax / AUC(0-t): male, FVB, mouse; for Kp at 2 h: liver, oral, read-out: Liver-to-plasma ratio; for Cmax / Tmax / AUC(0-t): plasma, po; for AUC(0-t): read-out: AUC0-2 h; for enhancement of AUC0-2h by ritonavir: ritonavir 25 mg/kg compared to vehicle group; for Kp at 2 h / CLiver / Cbrain / Pbrain, brain accumulation per h / SIC (% of dose), small intestinal content: 2 h
Experimental: All animals were fasted 2 to 3 hours prior to the start of the experiment to minimize variation in absorption after oral administration. […] Subsequently, cardiac puncture was performed with a heparinized needle and syringe collecting a final blood sample. […] All samples were stored at −30° C. until analysis.
Differences were considered statistically significant when P<0.05. All data are presented as geometric mean±SD.

in vivo [2] = conditions: male, mouse; for Kp at 24 h: Brain-to-plasma ratio
Experimental: (§1) The Jevtana (10 mg/mL) solution contains 0.26 mg/mL polysorbate 80 and 15% (w/v) ethanol, and is adjusted to pH 2-6 with citric acid. […] The stock solution was further diluted 5-fold with water to reach a 2.5 mg/mL dosing solution for oral administration. The vehicle solution only consists of polysorbate 80, ethanol and water (1:1:8, v/v/v). […] All dosing solutions were prepared freshly on the day of the experiment.
(§2) At the termination time point of 24 hours, mice were anesthetized using an isoflurane evaporator with 3% isoflurane with 0.8 L/min air and 0.3 L/min oxygen. A final blood sample was taken using cardiac puncture, using Eppendorf tubes previously prepared with heparin as an anticoagulant. Subsequently, the anesthetized mice were sacrificed by cervical dislocation and the tissues of interest were collected. Brain, liver, spleen, kidney, small intestine, and testis were collected. The small intestinal content (SIC) was separately collected by removing this from the small intestinal tissue, which was subsequently rinsed with saline to remove possibly fecal residue. The blood samples were centrifuged at 9,000×g for 6 minutes at 4° C., and the plasma fraction was isolated and stored at −30° C. until analysis. Brain, liver, spleen, kidney, small intestinal tissue, SIC, and testis were homogenized in a FastPrep-24™ 5G homogenizer (M. P. Biomedicals, Santa Ana, CA, USA) for 1 min with 1, 3, 1, 2, 3, 2, and 1 mL of 2% (w/v) BSA in Milli-Q water, respectively. Until analysis of the samples, they were all stored at −30° C.
(§3) Pharmacokinetic parameters were estimated by non-compartmental analysis using the software package of PK solutions 2.0.2 (SUMMIT, Research Service). The area under the curve (AUC) of the plasma-concentration time curve for all the compounds was calculated using the linear trapezoidal rule without extrapolating to infinity. The peak plasma concentration (Cmax) and the time to reach peak plasma concentration (Tmax) were obtained directly from the individual raw data. For the statistical analysis and the graphs GraphPad Prism 9 (GraphPad Software Inc., La Jolla, CA, USA) was used. The statistics for the comparison of multiple groups were calculated with the one-way analysis of variance (ANOVA), whereas Sidak's post hoc correction was performed. Log-transformation before statistical analysis was applied, when variances within the groups were not homogeneously distributed. Differences were considered statistically significant when P<0.05. All data are presented as geometric mean±SD.
The last parameter is in many cases the most useful, as it takes the overall exposure into account.

in vivo [3] = conditions: mouse; for AUC(0-t) / AUC0-24 h: po; for AUC(0-t): AUC0-24 h
Experimental: as §1, §2, §3

[4] = 10 mg/kg, Oatp1a/1b/2b1−/− mice, vehicle, cabazitaxel 10 mg/kg oral
[5] = 10 mg/kg, Oatp1a/1b−/− mice, vehicle, cabazitaxel 10 mg/kg oral
[6] = 10 mg/kg, wild-type mice, vehicle, cabazitaxel 10 mg/kg oral
[7] = wild-type mice, ritonavir 25 mg/kg oral, cabazitaxel 10 mg/kg oral
[8] = 10 mg/kg, OATP1B1-transgenic mice, ritonavir 25 mg/kg oral, cabazitaxel 10 mg/kg oral
[9] = 10 mg/kg, OATP1B1-transgenic mice, vehicle pretreatment, oral 10 mg/kg cabazitaxel
[10] = 10 mg/kg, OATP1B1-transgenic mice, vehicle, cabazitaxel 10 mg/kg oral
[11] = 10 mg/kg, OATP1B3-transgenic mice, ritonavir 25 mg/kg oral, cabazitaxel 10 mg/kg oral
[12] = 10 mg/kg, OATP1B3-transgenic mice, vehicle pretreatment, oral 10 mg/kg cabazitaxel
[13] = 10 mg/kg, OATP1B3-transgenic mice, vehicle, cabazitaxel 10 mg/kg oral
[14] = 10 mg/kg, Oatp1a/1b/2b1−/− mice, ritonavir 25 mg/kg oral, cabazitaxel 10 mg/kg oral
[15] = 10 mg/kg, Oatp1a/1b/2b1−/− mice, vehicle pretreatment, oral 10 mg/kg cabazitaxel
[16] = 10 mg/kg, Oatp1a/1b−/− mice, ritonavir 25 mg/kg oral, cabazitaxel 10 mg/kg oral
[17] = 10 mg/kg, Oatp1a/1b−/− mice, vehicle pretreatment, oral 10 mg/kg cabazitaxel
[18] = 10 mg/kg, wild-type mice, ritonavir 25 mg/kg oral, cabazitaxel 10 mg/kg oral
[19] = 10 mg/kg, wild-type mice, vehicle pretreatment, oral 10 mg/kg cabazitaxel
[20] = wild-type mice, vehicle, cabazitaxel 10 mg/kg oral
[21] = Cyp3aXAV vs Cyp3a−/− (FVB background)
[22] = Cyp3aXAV vs Cyp3a−/− (FVB background), 24 h

CO[C@H]1C(=O)[C@]2(C)[C@@H](OC)C[C@H]3OC[C@@]3(OC(C)=O)[C@H]2[C@H](OC(=O)c2ccccc2)[C@]2(O)C[C@H](OC(=O)[C@H](O)[C@@H](NC(=O)OC(C)(C)C)c3ccccc3)C(C)=C1C2(C)C [cabazitaxel]
Kp at 2 h [1, 4]: 3.84 | Kp at 2 h [1, 5]: 3.95 | Kp at 2 h [1, 6]: 3.93 | Kp at 2 h ([1]; OATP1B1-transgenic mice, ritonavir 25 mg/kg oral, cabazitaxel 10 mg/kg oral): 3.84 | Kp at 2 h ([1]; OATP1B3-transgenic mice, ritonavir 25 mg/kg oral, cabazitaxel 10 mg/kg oral): 4.15 | Kp at 2 h ([1]; Oatp1a/1b/2b1−/− mice, ritonavir 25 mg/kg oral, cabazitaxel 10 mg/kg oral): 3.95 | Kp at 2 h ([1]; Oatp1a/1b−/− mice, ritonavir 25 mg/kg oral, cabazitaxel 10 mg/kg oral): 3.62 | Kp at 2 h [1, 7]: 3.32 | Cmax [1, 8]: 4670 nM | Tmax [1, 8]: 65 min | Cmax [1, 9]: 2730 ± 855 nM | Tmax [1, 9]: 27.5 min | AUC(0-t) ([1]; 10 mg/kg, OATP1B1-transgenic mice, vehicle pretreatment, oral 10 mg/kg cabazitaxel, 0-2 h): 3.7 ± 1.23 µM·h | Cmax [1, 10]: 2730 nM | Tmax [1, 10]: 27.5 min | Cmax [1, 11]: 3860 nM | Tmax [1, 11]: 60 min | Cmax [1, 12]: 2690 ± 761 nM | Tmax [1, 12]: 27.5 min | AUC(0-t) ([1]; 10 mg/kg, OATP1B3-transgenic mice, vehicle pretreatment, oral 10 mg/kg cabazitaxel, 0-2 h): 3.51 ± 1.19 µM·h | Cmax [1, 13]: 2690 nM | Tmax [1, 13]: 27.5 min | Cmax [1, 14]: 4270 nM | Tmax [1, 14]: 70 min | Cmax [1, 15]: 2740 ± 1100 nM | Tmax [1, 15]: 26.7 min | AUC(0-t) ([1]; 10 mg/kg, Oatp1a/1b/2b1−/− mice, vehicle pretreatment, oral 10 mg/kg cabazitaxel, 0-2 h): 2.88 ± 0.616 µM·h | Cmax [1, 4]: 2740 nM | Tmax [1, 4]: 26.7 min | Cmax [1, 16]: 4700 nM | Tmax [1, 16]: 80 min | Cmax [1, 17]: 2120 ± 398 nM | Tmax [1, 17]: 24.2 min | AUC(0-t) ([1]; 10 mg/kg, Oatp1a/1b−/− mice, vehicle pretreatment, oral 10 mg/kg cabazitaxel, 0-2 h): 2.62 ± 0.417 µM·h | Cmax [1, 5]: 2120 nM | Tmax [1, 5]: 24.2 min | Cmax [1, 18]: 4530 nM | Tmax [1, 18]: 120 min | Cmax [1, 19]: 2820 ± 694 nM | Tmax [1, 19]: 25.8 min | AUC(0-t) ([1]; 10 mg/kg, wild-type mice, vehicle pretreatment, oral 10 mg/kg cabazitaxel, 0-2 h): 3.28 ± 1.32 µM·h | Cmax [1, 6]: 2820 nM | Tmax [1, 6]: 25.8 min | AUC(0-t) ([1]; wild-type, 10 mg/kg, wild-type mice, ritonavir 25 mg/kg oral, cabazitaxel 10 mg/kg oral): 7.62 µM·h | AUC(0-t) ([1]; wild-type, 10 mg/kg, wild-type mice, vehicle, cabazitaxel 10 mg/kg oral): 3.28 µM·h | enhancement of AUC0-2h by ritonavir ([1]; transgenic OATP1B1 mice): 2.1 fold | enhancement of AUC0-2h by ritonavir ([1]; transgenic OATP1B3 mice): 1.9 fold | CLiver [1, 7]: 21554 pmol/g | Cbrain [1, 7]: 235 pmol/g | Pbrain, brain accumulation per h [1, 7]: 0.026 h⁻¹ | SIC (% of dose), small intestinal content [1, 7]: 1.34 % of dose | CLiver [1, 20]: 2703 pmol/g | Cbrain [1, 20]: 50.0 pmol/g | Pbrain, brain accumulation per h [1, 20]: 0.013 h⁻¹ | SIC (% of dose), small intestinal content [1, 20]: 1.14 % of dose | Kp at 24 h (in vivo [2]; Cyp3aXAV (FVB background), po, 10 mg/kg): 1.52 | reduced AUC0-24h (in vivo [2]; [21]): 88.8 fold | reduced Cmax (in vivo [2]; [21]): 12.1 fold | decrease of liver concentration (in vivo [2]; [22]): 341.2 fold | reduction of brain exposure (in vivo [2]; [22]): 167.6 fold | Kp at 24 h (in vivo [2]; Cyp3a−/− (FVB background), po, 10 mg/kg): 0.231 | Tmax (in vivo [2]; Cyp3a−/− (FVB background), po, 10 mg/kg, Tmax): 125 min | Kp at 24 h (in vivo [2]; wild-type FVB, po, 10 mg/kg): 1.17 | increase in AUC0-24h (in vivo [3]; male, Cyp3aXAV (FVB background), 10 mg/kg): 10.1 fold | AUC(0-t) (in vivo [3]; male, Cyp3aXAV (human CYP3A in Cyp3a−/−, FVB background), 10 mg/kg): 1.24 ± 0.177 µM·h | AUC0-24 h (in vivo [3]; male, FVB, Cyp3aXAV, 10 mg/kg): 12.515 µM·h | AUC(0-t) (in vivo [3]; male, FVB, Cyp3aXAV, 10 mg/kg): 12.5 ± 5.41 µM·h | AUC0-24 h (in vivo [3]; male, FVB, wild-type, 10 mg/kg): 72.771 µM·h | AUC(0-t) (in vivo [3]; male, FVB, wild-type, 10 mg/kg): 72.8 ± 2.62 µM·h | alteration in AUC0-24h (in vivo [3]; 1 mg/kg): no alteration
